The record followed here is ChEMBL document CHEMBL3425406, “Design, Synthesis, and Evaluation of Tetrasubstituted Pyridines as Potent 5-HT2C Receptor Agonists” (ACS Med Chem Lett, 2015).

Data set [1] deals with T1, 5-hydroxytryptamine receptor 2B (Homo sapiens, UniProt P41595). Kind of data set: Agonist activity at human recombinant 5-HT2B receptor expressed in CHOK1 cells assessed as induction of Ca2+ mobilization at 30 uM after 1 hr by FLIPR assay relative to 5-HT. The class given is functional, cell-based. The settings on record: CHO-K1. A general note: Calcium assays in cells follow changes in intracellular calcium, usually with a dye or a luminescent sensor.
T1 sequence (P41595 whole entry): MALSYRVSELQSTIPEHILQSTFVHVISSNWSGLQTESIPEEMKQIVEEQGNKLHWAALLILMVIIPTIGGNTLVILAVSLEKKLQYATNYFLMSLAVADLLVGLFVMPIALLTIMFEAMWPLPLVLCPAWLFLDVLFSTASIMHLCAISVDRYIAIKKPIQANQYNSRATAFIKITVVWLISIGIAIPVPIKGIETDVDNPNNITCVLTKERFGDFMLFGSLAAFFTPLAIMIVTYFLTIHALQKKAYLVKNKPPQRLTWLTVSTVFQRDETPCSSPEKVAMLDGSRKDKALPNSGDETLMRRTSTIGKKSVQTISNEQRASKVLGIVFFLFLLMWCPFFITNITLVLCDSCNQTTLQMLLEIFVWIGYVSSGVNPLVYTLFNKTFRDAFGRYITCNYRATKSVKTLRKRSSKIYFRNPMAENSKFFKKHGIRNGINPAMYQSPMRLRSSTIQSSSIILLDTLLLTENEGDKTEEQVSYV

Data set [2] can be described thus: Lipophilicity, log D of the compound. The class given is physicochemical. The settings on record: octanol/water.
For data set [3], the target named is T1, 5-hydroxytryptamine receptor 2B. Kind of data set: Agonist activity at human recombinant 5-HT2B receptor expressed in CHOK1 cells assessed as induction of Ca2+ mobilization after 1 hr by FLIPR assay. Type of data set: functional, cell-based, CHO-K1.
A short description of data set [4]: Permeability across dog RRCK cells. Type of data set: ADME, cell-based, Canis lupus familiaris, MDCKII-LE. The settings on record: MDCK, read-out: permeability.
Data set [5] concerns MDR1. Kind of data set: Apparent permeability across apical to basolateral side in MDCK cells expressing MDR1. Type of data set: ADME, cell-based, Canis lupus familiaris. As to conditions: dog.
Data set [6] concerns MDR1. Kind of data set: Efflux ratio of apparent permeability across basolateral to apical over apical to basolateral side in MDCK cells expressing MDR1. Type of data set: ADME, cell-based, Canis lupus familiaris. The settings on record: dog.
Data set [7] addresses T1, 5-hydroxytryptamine receptor 2B. Kind of data set: Inhibition of Cy3B conjugated serotonin analogue binding to human recombinant 5-HT2B receptor expressed in CHOK1 cells after 60 mins by fluorescence polarization assay. Type of data set: cell-based. As to conditions: CHO-K1. (In general: In fluorescence polarisation assays a small probe gives low polarisation when free and higher when bound to something large.)

pEC50: −log10 of the molar value.

For orientation: Emax means the size of the effect at its maximum, as opposed to the concentration needed. For orientation: logD means lipophilicity at a set pH, counting ionised and neutral species. In general, pEC50 refers to the EC50 on a negative log10 scale, so that one unit is a factor of ten. In the case of `CC(C)Nc1nc(Cc2ccccc2)cc2c1CCNCC2`, in data set [1], the maximal response (Emax) was determined as 32%. This compound gave a logD in data set [2] of 1. Besides, the pEC50 in data set [3] is 7.48. Further, in data set [4], the Papp worked out at 12 ×10⁻⁶ cm/s.
For orientation: Papp A→B means the apparent permeability from the apical to the basolateral side of a cell layer. Usually efflux ratio stands for the permeability from basolateral to apical divided by that in the opposite direction, in the common usage. With `c1ccc(Cc2cc3c(c(NCC4CC4)n2)CCNCC3)cc1`, the Emax in data set [1] came out at 51%. Besides, in data set [2], the logD was determined as 1.2. Also, the Papp A→B in data set [5] came to 0.8 ×10⁻⁶ cm/s. Further, the pEC50 in data set [3] is 7.66. For the same compound, in data set [4], the Papp was determined as 2 ×10⁻⁶ cm/s. The efflux ratio in data set [6] was determined as 6.1.
Turning to `c1ccc(Cc2cc3c(cn2)CCNCC3)cc1`, the Emax in data set [1] turned out to be 53%. Moreover, the logD in data set [2] is 0.5. The Papp A→B in data set [5] was determined as 3.9 ×10⁻⁶ cm/s. The pEC50 in data set [3] is 7.57. The Papp in data set [4] came to 18 ×10⁻⁶ cm/s. Further, the efflux ratio in data set [6] was determined as 1.5.
As for `CCCNc1nc(Cc2ccccc2)cc2c1CCNCC2`, the Emax in data set [1] amounted to 38%. For the same compound, in data set [2], the logD amounted to 1. Besides, the Papp A→B in data set [5] amounted to 1.5 ×10⁻⁶ cm/s. The pEC50 in data set [3] was 7.57. Also, the Papp in data set [4] is 4 ×10⁻⁶ cm/s. In data set [6], the efflux ratio was 3.5.
Take `CC(C)CNc1nc(Cc2ccccc2)cc2c1CCNCC2`: the logD in data set [2] is 1.7.
Regarding `CNc1nc(Cc2ccccc2)cc2c1CCNCC2`, the Emax in data set [1] came out at 69%. For the same compound, in data set [2], the logD was 0.4. For the same compound, the Papp A→B in data set [5] is 2.5 ×10⁻⁶ cm/s. Besides, in data set [3], the pEC50 is 5.83. For the same compound, the Papp in data set [4] was 8 ×10⁻⁶ cm/s. Also, the efflux ratio in data set [6] turned out to be 2.8.
For the compound `CCNc1nc(Cc2ccccc2)cc2c1CCNCC2`, the Emax in data set [1] was 28%. The same compound registered a logD in data set [2] of 0.6. Besides, the Papp A→B in data set [5] was 1.8 ×10⁻⁶ cm/s. Further, the pEC50 in data set [3] is 7.74. The Papp in data set [4] worked out at 7 ×10⁻⁶ cm/s. The efflux ratio in data set [6] is 2.3.
Regarding `CN(C)c1nc(Cc2ccccc2)cc2c1CCNCC2`, in data set [1], the Emax came to 38%. In data set [2], this compound showed a logD of 0.6. The Papp A→B in data set [5] was determined as 2.1 ×10⁻⁶ cm/s. In addition, the pEC50 in data set [3] is 7.52. In addition, in data set [4], the Papp was found to be 8 ×10⁻⁶ cm/s. The efflux ratio in data set [6] came to 2.2.
As for `c1ccc(CNc2nc(Cc3ccccc3)cc3c2CCNCC3)cc1`, the Kb in data set [7] stood at 121 nM. The compound also had a pH-dependent lipophilicity (logD) in data set [2] of 1.7. The Papp A→B in data set [5] was found to be 0.6 ×10⁻⁶ cm/s. For the same compound, in data set [4], the Papp is 2 ×10⁻⁶ cm/s. Further, the efflux ratio in data set [6] is 3.6.
